Test results as given in PubChem BioAssay (NCI).
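Briefly, cells in 96-well plates were exposed to five compound concentrations for 48 h, and endpoints were estimated by linear interpolation. TGI marks complete inhibition of growth.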

Experiments:
Test in all cases: NCI-60 cell line screen, 48 h
RXF-631 renal = system: RXF-631 renal
DLD-1 colon = system: DLD-1 colon
M19-MEL melanoma = system: M19-MEL melanoma
DMS 114 small cell lung = system: DMS 114 small cell lung
LOX IMVI melanoma = system: LOX IMVI melanoma
LXFL 529 NSCLC = system: LXFL 529 NSCLC
SK-MEL-2 melanoma = system: SK-MEL-2 melanoma
HCT-116 colon = system: HCT-116 colon
DMS 273 small cell lung = system: DMS 273 small cell lung
XF 498 CNS = system: XF 498 CNS
HOP-18 NSCLC = system: HOP-18 NSCLC
SNB-78 CNS = system: SNB-78 CNS
KM20L2 colon = system: KM20L2 colon

| Structure (SMILES) | TGI (RXF-631 renal) [µM] | TGI (DLD-1 colon) [µM] | TGI (M19-MEL melanoma) [µM] | TGI (DMS 114 small cell lung) [µM] | TGI (LOX IMVI melanoma) [µM] | TGI (LXFL 529 NSCLC) [µM] | TGI (SK-MEL-2 melanoma) [µM] | TGI (HCT-116 colon) [µM] | TGI (DMS 273 small cell lung) [µM] | TGI (XF 498 CNS) [µM] | TGI (HOP-18 NSCLC) [µM] | TGI (SNB-78 CNS) [µM] | TGI (KM20L2 colon) [µM] |
| --- | --- | --- | --- | --- | --- | --- | --- | --- | --- | --- | --- | --- | --- |
| CC(C)(C)c1cc(Oc2ccc(C#N)c(C#N)c2)cc(C(C)(C)C)c1 | > 100 | > 100 | > 100 | > 100 | 94.6 | > 100 | > 100 | > 100 | 27.1 | > 100 | > 100 | > 100 | > 100 |
| COc1ccccc1NC(=O)CC(=O)n1nc(-c2ccccc2)c(N=Nc2ccccc2[N+](=O)[O-])c1-c1ccccc1 | > 100 | > 100 | > 100 | > 100 | > 100 | > 100 | > 100 | > 100 | > 100 | > 100 | > 100 | > 100 | > 100 |
| O=C(Cc1nc2ccc(C(=O)c3ccccc3)cc2[nH]c1=O)C(=O)Nc1ccc(C(F)(F)F)cc1[N+](=O)[O-] | > 100 | > 100 | > 100 | – | > 100 | > 100 | > 100 | > 100 | > 100 | > 100 | > 100 | > 100 | > 100 |
| COC(=O)NN/C=C(\C=Nc1ccccc1)[N+](=O)[O-] | > 100 | > 100 | > 100 | > 100 | > 100 | > 100 | – | > 100 | > 100 | > 100 | > 100 | – | > 100 |
